Where two headings read alike, the source gives them in different places.
Assays:
mice = details: cited from earlier work; for tolerated i.p. dose: mice
Pseudomonas aeruginosa = test: viability (CCK-8) of MDCK cells challenged with Pseudomonas aeruginosa; assay type: cell-based; details: P. aeruginosa 10^6 CFU/mL, 5 h, inhibitor 2 h prior and during, tested 0.5-100 µM
Procedure: MDCK NBL-2 cells were obtained from Cytion (formerly: CLS Cell Lines Service, Eppenheim, Germany). Cells were grown in T-75 cell culture flasks, using Dulbecco’s Modified Eagle’s Medium (DMEM, Capricorn Scientific, Ebsdorfergrund, Germany) supplemented with 5% foetal bovine serum (FBS, Capricorn) and antibiotic–antimycotic solution (penicillin, streptomycin, amphotericin B; Merck, Darmstadt, Germany). The cells were subcultured and seeded in wells of 96-well microtiter plates one day prior to the experiments. After 24 h, near 100% confluence was recorded in the wells. The growth and incubation of MDCK cells were carried out in a humidified incubator at 37 °C and in the presence of 5% CO2. […] Three times single colonies from ten different blood agar plates were dissolved in 5 mL of distilled water, and colony-forming units (CFU) were counted after their serial dilution and overnight incubation on non-selective blood agar at 37 °C. […] The count of Pseudomonas aeruginosa from inoculating vials was also assessed and was in good accordance with our count prediction. […] Following the addition of the final reagent (100 µL fresh Williams’ Medium E) and a 2 h incubation period, the absorbance was measured at 450 nm using a SpectraMax iD3 (Molecular Devices, San José, CA, USA).

IPEC-J2 cells [1] = test: Amplex Red extracellular H2O2 assay in IPEC-J2 cells; assay type: cell-based, porcine; details: 50 or 100 μM, 24 h
Procedure: (§1) The cell line used for the experiments was the IPEC-J2 from the jejunum of porcine. The IPEC-J2 epithelial cell line was a kind gift from Dr. Jody Gookin (Department of Clinical Sciences, College of Veterinary Medicine, North Carolina State University, Raleigh, NC, USA). The cell monolayers were maintained in 75 cm^2 cell culture flasks with filtered caps (Orange Scientific, Braine-l’Alleud, Belgium) at 37 °C in a humidified atmosphere containing 5% CO2. The culture medium contained 50% Dulbecco’s modified Eagle’s medium (DMEM) and 50% Ham’s F12 Nutrient Mixture (Merck, Darmstadt, Germany) supplemented with 1.5 mmol/L HEPES, 5% fetal bovine serum (FBS) (Biocenter, Budapest, Hungary), 1% insulin/transferrin/sodium selenite medium supplement, 5 ng/mL epidermal growth factor (EGF), and 1% penicillin/streptomycin (all purchased from Invitrogen, Thermo Fisher Scientific, Waltham, MA, USA). Cells were used between passages 40 and 55. The media were changed every second day. Cells were seeded onto 96- and 24-well polystyrene cell culture plates for the cell viability and the Amplex Red/DCFH-DA assay, respectively. […]

IPEC-J2 cells [2] = test: DCFH-DA intracellular ROS assay in IPEC-J2 cells; assay type: cell-based, porcine; details: 50 and 100 μM, 24 h
Procedure: as §1, with “55.” for “55. The media were changed every second day. Cells were seeded onto 96- and 24-well polystyrene cell culture plates for the cell viability and the Amplex Red/DCFH-DA assay, respectively.”
The ability of inhibitors MI-1851 and MI-2415 to induce oxidative stress (ROS) within IPEC-J2 as well as of compound MI-2415 within PHHs was investigated with 2,7-dichloro-dihydro-fluorescein diacetate (DCFH2-DA). […] A Victor X2 2030 (Perkin Elmer, Waltham, MA, USA) was used to determine the fluorescence values of the samples (excitation wavelength: 485 nm, emission wavelength: 535 nm), which are directly proportional to the ROS generation.

furin = details: read-out: Ki for furin; cited from earlier work

Structure (SMILES) | tolerated i.p. dose (mice; no higher dose was tested) [mg/kg] | concentration with antipseudomonal effect (preserved MDCK cell viability) (Pseudomonas aeruginosa) [µM] | extracellular H2O2 production (redox balance) in IPEC-J2 cells (IPEC-J2 cells [1]) | intracellular ROS levels in IPEC-J2 cells (IPEC-J2 cells [2]) | Ki (furin) [pM] | tolerated i.p. dose (mice) [mg/kg] | mortality (mice; mouse, in vivo, ip, 20 mg/kg)
CC(C)(C)[C@H](NC(=O)[C@H](CCONC(=N)N)NC(=O)Cc1ccc(CNC(=N)N)cc1)C(=O)N[C@@H](CCONC(=N)N)C(=O)NCc1ccc(C(=N)N)cc1 [MI-1851] | 15 | 0.5 | slightly, but statistically not significantly | no significant alterations in intracellular ROS levels | 10.1 |  | 
CC(C)(C)[C@H](NC(=O)[C@H](CCONC(=N)N)NC(=O)Cc1ccc(CNC(=N)N)cc1)C(=O)N[C@@H](CCONC(=N)N)C(=O)NCc1ccc2c(c1)CN=C2N [MI-2415] |  | ≥ 25 | slightly, but statistically not significantly | no significant alterations in intracellular ROS levels | 7.1 | 15 | one of four mice died
